Assay results from patent publication US20070219214A1, “Dual NK2/NK3-antagonists, pharmaceutical compositions comprising them, and processes for their preparation” (Solvay pharmaceuticals GmbH, priority 2006, published 2007).
Where two headings read alike, the source gives them in different places.

Columns and labels:
NK1-receptor = target: T1, NK1-receptor (Cavia porcellus, UniProt P30547); experiment: NK1-receptor-antagonistic effectiveness in vivo, NKA-induced early hypotension in anaesthetised guinea pigs; settings: guinea pig; for ED50 iv after 1 min (cumulative), NK1 (early hypotension) / ED50 AUC1-180 min oral, NK1 (early hypotension): NKA 200 pmol/animal i.v.; for ED50 iv after 1 min (cumulative), NK1 (early hypotension): intravenous administration
T1 construct: from tissue; host or cells: whole animal (Pirbright-White guinea pigs), in vivo
Text: (§1) 10. Determination of the NK1- and NK2-Receptor-Antagonistic Effectiveness of the Test Substances In Vivo
(§2) The NK1- and NK2-antagonistic activities of the test substances were investigated in anaesthetised guinea pigs in each case after intravenous (=i.v.) and oral (=p.o.) administration in vivo. With the present test model it is possible to detect both NK2-antagonistic effects in three different organ systems (respiratory tracts, colon and circulation) and NK1-antagonistic effects (rapid drop in blood pressure) in an animal simultaneously.
(§3) Pirbright-White guinea pigs of a body weight of 500-700 g were anaesthetised with ketamine/xylazine (67/13 mg/kg subcutaneously, initial dose, further doses administered as required). The animals were provided with an intravenous catheter in order to administer the substance and an intra-arterial catheter to measure the blood pressure. The animals were artificially ventilated via a tracheal cannula and the respiratory pressure was recorded by means of a pressure transducer. A balloon was introduced into the distal colon of the animals for manometric recording of colon motility by means of a pressure transducer. Blood pressure, heart rate, respiratory pressure and colonic pressure were measured continuously for each animal and plotted on a recorder and by means of a digital data-processing system. […] The second phase of delayed hypotension (=phase of maximum hypotension after 2-5 min.) on the other hand is mediated via NK2-receptors, since they can be blocked by specific NK2-receptor antagonists.
(§4) These ED50 values obtained from cumulative dose effect curves are plotted in Table 13.

NK2-receptor = target: T2, NK2-receptor (Cavia porcellus, UniProt Q64077); experiment: NK2-receptor-antagonistic effectiveness in vivo, NKA-induced late hypotension, bronchoconstriction and colonic pressure in anaesthetised guinea pigs; settings: guinea pig; for oral activity on the NK2, in words / ED50 AUC1-180 min oral, NK2 (bronchoconstriction) / ED50 AUC1-180 min oral, NK2 (colonic motility) / ED50 AUC1-180 min oral, NK2 (late hypotension): oral administration; for ED50 iv after 1 min (cumulative), NK2 (bronchoconstriction) / ED50 iv after 1 min (cumulative), NK2 (colonic motility) / ED50 iv after 1 min (cumulative), NK2 (late hypotension) / ED50 AUC1-180 min oral, NK2 (bronchoconstriction) / ED50 AUC1-180 min oral, NK2 (colonic motility) / ED50 AUC1-180 min oral, NK2 (late hypotension): NKA 200 pmol/animal i.v.; for ED50 iv after 1 min (cumulative), NK2 (bronchoconstriction) / ED50 iv after 1 min (cumulative), NK2 (colonic motility) / ED50 iv after 1 min (cumulative), NK2 (late hypotension): intravenous administration
T2 construct: from tissue; host or cells: whole animal (Pirbright-White guinea pigs), in vivo
T2 sequence (Q64077 1-402): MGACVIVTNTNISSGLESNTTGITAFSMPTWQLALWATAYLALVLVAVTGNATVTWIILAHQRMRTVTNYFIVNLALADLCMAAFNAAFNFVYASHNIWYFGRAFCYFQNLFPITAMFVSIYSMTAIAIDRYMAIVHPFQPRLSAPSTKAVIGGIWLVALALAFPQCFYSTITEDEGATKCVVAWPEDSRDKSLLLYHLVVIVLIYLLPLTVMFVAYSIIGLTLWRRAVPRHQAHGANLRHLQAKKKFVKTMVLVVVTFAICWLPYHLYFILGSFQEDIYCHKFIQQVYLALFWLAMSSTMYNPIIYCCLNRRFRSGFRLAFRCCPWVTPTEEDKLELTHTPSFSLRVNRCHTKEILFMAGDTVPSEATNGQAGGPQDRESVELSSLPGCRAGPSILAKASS
Text: as §1, §2, §3, §4

human NK3 receptor [1] = target: T3, human NK3 receptor (Homo sapiens, UniProt P29371); experiment: Binding potency of the test substances to NK3-receptors in vitro ([3H]-SR 142801 displacement); set-up: expressed in transfected cells; host or cells: CHO cells (membrane preparation); settings: human NK3-receptor in CHO cell membranes, [3H]-SR 142801 (osanetant), average of at least three measurements; for Ki: read-out: pKi, binding potency to NK3-receptors (converted)
T3 sequence (P29371 1-465): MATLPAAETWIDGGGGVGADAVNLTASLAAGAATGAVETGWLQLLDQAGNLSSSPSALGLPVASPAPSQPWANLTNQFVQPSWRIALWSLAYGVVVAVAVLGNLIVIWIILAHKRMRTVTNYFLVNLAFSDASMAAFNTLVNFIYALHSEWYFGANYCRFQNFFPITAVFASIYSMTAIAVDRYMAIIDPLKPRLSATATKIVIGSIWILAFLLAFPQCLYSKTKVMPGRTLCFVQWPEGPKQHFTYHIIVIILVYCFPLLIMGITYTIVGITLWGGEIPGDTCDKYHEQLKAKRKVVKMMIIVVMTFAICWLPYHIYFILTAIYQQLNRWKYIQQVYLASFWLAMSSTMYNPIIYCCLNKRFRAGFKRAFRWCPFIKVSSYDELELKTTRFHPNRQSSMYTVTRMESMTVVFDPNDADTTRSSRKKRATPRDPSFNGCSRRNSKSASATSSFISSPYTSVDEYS
Method in brief: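 [3H]-osanetant displacement on membranes from CHO cells stably expressing the human receptor, with bound ligand separated by filtration and counted by scintillation. Nonspecific binding defined with 1 μmol/l unlabeled osanetant. IC50 converted to Ki by Cheng-Prusoff and reported as pKi, averaged over measurements.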

human NK3 receptor [2] = target: T3, human NK3 receptor; experiment: Functional cellular test, Ca2+ measurements using aequorin for NK3 activity; format: cell-based; set-up: expressed in transfected cells; host or cells: cell line co-expressing mitochondrially targeted apoaequorin (CHO according to b76/b77); settings: for Kb: read-out: pA2 data for NK3 (converted); for pA2 data for NK3: cell line with human NK3 receptor and apoaequorin, agonist senktide 5x10-8 M
[3] = iv, read-out: ED50 iv after 1 min (cumulative), NK1 (early hypotension)
[4] = iv, read-out: ED50 iv after 1 min (cumulative), NK2 (bronchoconstriction)
[5] = iv, read-out: ED50 iv after 1 min (cumulative), NK2 (colonic motility)
[6] = iv, read-out: ED50 iv after 1 min (cumulative), NK2 (late hypotension)

T1 sequence (P30547 whole entry): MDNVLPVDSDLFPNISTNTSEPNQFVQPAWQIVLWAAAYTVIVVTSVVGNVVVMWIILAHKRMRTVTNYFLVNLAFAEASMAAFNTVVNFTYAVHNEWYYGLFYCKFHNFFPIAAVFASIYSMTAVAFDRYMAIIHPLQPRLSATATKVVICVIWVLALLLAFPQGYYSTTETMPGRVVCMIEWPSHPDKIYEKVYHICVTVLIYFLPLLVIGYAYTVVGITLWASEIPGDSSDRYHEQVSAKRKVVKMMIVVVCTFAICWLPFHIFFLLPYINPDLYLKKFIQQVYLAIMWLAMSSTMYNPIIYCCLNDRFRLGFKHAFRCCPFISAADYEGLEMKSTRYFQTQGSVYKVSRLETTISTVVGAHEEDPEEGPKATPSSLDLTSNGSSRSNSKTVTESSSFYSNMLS

Structure (SMILES) | ED50 (NK1-receptor; [3]) [µmol/kg] | ED50 (NK2-receptor; [4]) [µmol/kg] | ED50 (NK2-receptor; [5]) [µmol/kg] | ED50 (NK2-receptor; [6]) [µmol/kg] | oral activity on the NK2, in words (NK2-receptor) | Ki (human NK3 receptor [1]) [nM] | Kb (human NK3 receptor [2]) [nM] | ED50 iv after 1 min (cumulative), NK1 (early hypotension) (NK1-receptor) [µmol/kg] | ED50 iv after 1 min (cumulative), NK2 (bronchoconstriction) (NK2-receptor) [µmol/kg] | ED50 iv after 1 min (cumulative), NK2 (colonic motility) (NK2-receptor) [µmol/kg] | ED50 iv after 1 min (cumulative), NK2 (late hypotension) (NK2-receptor) [µmol/kg] | pKi, binding potency to NK3-receptors (human NK3 receptor [1]) | pA2 data for NK3 (human NK3 receptor [2]) | also measured
CN(C)C(=O)C1(N2CCCCC2)CCN(CC[C@H](CN(C)C(=O)c2ccccc2)c2ccc(Cl)c(Cl)c2)CC1 [compound 1] | > 0.46 | 0.033 | < 0.003 | 0.044 | active orally on the NK2 | 2.51 | 2.51 |  |  |  |  |  |  | ED50 (NK1-receptor; read-out: ED50 AUC1-180 min oral, NK1 (early hypotension)): > 3.2 µmol/kg; ED50 (NK2-receptor; read-out: ED50 AUC1-180 min oral, NK2 (bronchoconstriction)): 0.457 µmol/kg; ED50 (NK2-receptor; read-out: ED50 AUC1-180 min oral, NK2 (colonic motility)): 1.08 µmol/kg; ED50 (NK2-receptor; read-out: ED50 AUC1-180 min oral, NK2 (late hypotension)): 2.24 µmol/kg
CN(C)C(=O)C1(N2CCCCC2)CCN(CC[C@H](CN(C)C(=O)C2CCCCC2)c2ccc(Cl)c(Cl)c2)CC1 [compound 3] |  |  |  |  |  |  |  | >1.462 | 0.221 | 0.07 | 0.397 | 8.2 | 8.2 | 
CN(C)C(=O)C1(N2CCCCC2)CCN(CC[C@H](CN(C)C(=O)c2ccc(F)cc2)c2ccc(Cl)c(Cl)c2)CC1 [compound 4] |  |  |  |  | active orally on the NK2 |  |  | >1.462 | 0.058 | 0.053 | 0.04 | 8.2 | 8.2 | ED50 AUC1-180 min oral, NK1 (early hypotension) (NK1-receptor; oral administration): >10 µmol/kg; ED50 AUC1-180 min oral, NK2 (bronchoconstriction) (NK2-receptor): <3.2 µmol/kg; ED50 AUC1-180 min oral, NK2 (colonic motility) (NK2-receptor): <3.2 µmol/kg; ED50 AUC1-180 min oral, NK2 (late hypotension) (NK2-receptor): 12 µmol/kg
CN(C)C(=O)C1(N2CCCCC2)CCN(CC[C@H](CN(C)C(=O)c2ccc(O)cc2)c2ccc(Cl)c(Cl)c2)CC1 [compound 6, 1′-{(3S)-3-(3,4-dichlorophenyl)-4-[(4-hydroxybenzoyl)-(methyl)amino]butyl}-N,N-dimethyl-1,4′-bipiperidine-4′-carboxamide] | > 1.46 | 0.06 | 0.096 | 0.04 |  | 2 | 2 |  |  |  |  |  |  | 
CN(C)C(=O)C1(N2CCCCC2)CCN(CC[C@H](CN(C)C(=O)c2cc(C#N)c3ccccc3c2)c2ccc(Cl)c(Cl)c2)CC1 [compound 11] |  |  |  |  | active orally on the NK2 |  |  | 0.433 | 0.052 | 0.085 | 0.212 | 7.9 | 8.1 | ED50 AUC1-180 min oral, NK1 (early hypotension) (NK1-receptor; oral administration): 23.027 µmol/kg; NK-1-receptor-antagonistic activity on the early hypotension, in words (NK1-receptor; cumulative administration i.v., 1 min after administration): marked NK-1-receptor-antagonistic activity; oral activity as NK1 receptor antagonist, in words (NK1-receptor; oral administration): active as NK1 receptor antagonists; ED50 AUC1-180 min oral, NK2 (bronchoconstriction) (NK2-receptor): 2.213 µmol/kg; ED50 AUC1-180 min oral, NK2 (colonic motility) (NK2-receptor): 11.228 µmol/kg; ED50 AUC1-180 min oral, NK2 (late hypotension) (NK2-receptor): 2.509 µmol/kg
CN(C)C(=O)C1(N2CCCCC2)CCN(CC[C@H](CN(C)C(=O)c2ccc(F)cc2F)c2ccc(Cl)c(Cl)c2)CC1 [compound 13] |  |  |  |  |  |  |  |  |  |  |  | 7.4 | 8.0 | 
CN(C)C(=O)C1(N2CCCCC2)CCN(CC[C@H](CN(C)C(=O)c2ccc(F)c(F)c2)c2ccc(Cl)c(Cl)c2)CC1 [compound 14] |  |  |  |  |  |  |  | >1.462 | 0.26 | 0.245 | 0.247 |  | 8.1 | 
CN(C)C(=O)C1(N2CCCCC2)CCN(CC[C@H](CN(C)C(=O)c2cc(F)ccc2F)c2ccc(Cl)c(Cl)c2)CC1 [compound 15] |  |  |  |  |  |  |  | >1.462 | 0.075 | 0.066 | 0.1 |  | 8.1 | 
CN(C)C(=O)C1(N2CCCCC2)CCN(CCC(CN(C)C(=O)c2ccc(Cl)nc2)c2ccc(Cl)c(Cl)c2)CC1 (centres unmarked) [compound 18] | > 1.46 | 0.18 | 0.068 | 0.181 |  | 5.01 | 10 |  |  |  |  |  |  | 
CN(C)C(=O)C1(N2CCCCC2)CCN(CCC(CN(C)C(=O)c2cccnc2)c2ccc(Cl)c(Cl)c2)CC1 (centres unmarked) [compound 19] | > 1.46 | 0.093 | 0.028 | 0.209 |  | 31.6 | 50.1 |  |  |  |  |  |  | 
